# Measurements reported in patent publication US20070282007A1, “TREATMENT OF PAIN DISORDERS WITH trans 4-(3,4-DICHLOROPHENYL)-1,2,3,4-TETRAHYDRO-1-NAPHTHALENAMINE AND ITS FORMAMIDE” (SEPRACOR INC., priority 2006, published 2007).
# What was measured:
# NE transporter = target: T1, NE transporter (Homo sapiens, UniProt P23975); test: Radioligand binding assay, NE transporter ([3H]nisoxetine displacement); conditions: human recombinant; [3H]nisoxetine 0.3 nM; read-out: Ki, Norepinephrine (NE) transporter
# T1 construct: expressed in transfected cells
# Protocol: (§1) The assays measured the affinity of the two compounds for transporters of the monoamines 5-HT, NE and DA. […] The transporters were human recombinant proteins expressed in mammalian cells. Binding to the 5-HT transporter was assessed by evaluating displacement of [^3H]paroxetine (0.1 nM). […] Binding to the NE transporter was assessed by evaluating displacement of [^3H]nisoxetine (0.3 nM).
# DA transporter = target: T2, DA transporter (Homo sapiens, UniProt Q01959); test: Radioligand binding assay, DA transporter ([3H]GBR 12935 displacement); conditions: human recombinant; [3H]GBR 12935 0.5 nM; read-out: Ki, Dopamine (DA) transporter
# T2 construct: expressed in transfected cells
# Protocol: as §1
# [1] = target: T3, Norepinephrine (NE) uptake (Rattus norvegicus, UniProt Q63380); test: Functional uptake of radiolabeled NE into synaptosomes from rat hypothalamus; assay type: biochemical
# T3 construct: from tissue; host or cells: synaptosomes from rat hypothalamus
# Protocol: The 5-HT and NE assays were performed essentially as outlined in Perovic S. & Müller W. E. G., Arzneim.-Forsch.
# [2] = target: T4, recombinant human Norepinephrine (NE) transporter (Homo sapiens, UniProt P23975); test: Functional uptake of NE into cells expressing recombinant human transporters; assay type: cell-based; conditions: read-out: IC50 inhibition of functional uptake in human transporters, Norepinephrine (NE)
# T4 construct: expressed in transfected cells
# [3] = target: T5, recombinant human Dopamine (DA) transporter (Homo sapiens, UniProt Q01959); test: Functional uptake of DA into cells expressing recombinant human transporters; assay type: cell-based; conditions: read-out: IC50 inhibition of functional uptake in human transporters, Dopamine (DA)
# T5 construct: expressed in transfected cells
# B2 = B2 (Homo sapiens, UniProt P30411); test: In vitro radioligand binding assay, B2
# 5-HT1B = 5-HT1B (Homo sapiens, UniProt P28222); test: In vitro radioligand binding assay, 5-HT1B
# 5-HT2A = 5-HT2A (Homo sapiens, UniProt P28223); test: In vitro radioligand binding assay, 5-HT2A
# [4] = target: Ca^2+ Channel Verapamil Site; test: In vitro radioligand binding assay, Ca2+ channel verapamil site
# M3 receptor = target: T6, M3 receptor (Cavia porcellus, UniProt H0W1Z3); test: Carbachol-induced contraction of the isolated Guinea pig ileum
# T6 construct: from tissue; host or cells: isolated guinea pig ileum
# Long-Evans derived rats = test: Porsolt forced swim test; assay type: in vivo, rat; conditions: for Mean Immobility Time (% of Total) ± SEM, Day 2 Study: 3 administrations; for Mean Immobility Time (% of Total) ± SEM, Day 4 Study: 7 administrations
# Protocol: Performance in the Porsolt forced swim test was evaluated for sertraline and Compound P following protocols outlined in Porsolt R. D., et al., Arch. Int. Pharmacodyn., 229: 327 ([…]).
# The Porsolt forced swim test is a model of “behavioral despair”, which has been used as an in vivo model for assessing potential antidepressant-like activity. Both test articles were dissolved in physiological saline (vehicle) and administered intraperitoneally. […] Long-Evans derived rats were used.
# hERG channel = hERG channel (Homo sapiens, UniProt Q12809); test: hERG channel current in stably transfected HEK293 cells
# Protocol: Studies were conducted to determine effects on IKr, the rapidly activating delayed rectifier cardiac potassium current in the human heart. […] In this assay system, HERG channel current serves as a surrogate for IKr.
# Rat SNL Model = test: SNL model of neuropathic pain, mechanical allodynia testing; assay type: in vivo
# Protocol: The animals were anesthetized with isoflurane, the left L5 transverse process was removed, and the L5 and L6 spinal nerves were tightly ligated with 6-0 silk suture. The wound was then closed with internal sutures and external staples. Wound clips were removed 10-11 days following surgery.
# Animals were placed on a perforated metallic platform and allowed to acclimate to their surroundings for a minimum of 30 minutes before testing. The mean and standard error of the mean (SEM) were determined for each animal in each treatment group. Since this stimulus is normally not considered painful, significant injury-induced increases in responsiveness in this test are interpreted as a measure of mechanical allodynia. Mechanical allodynia was evaluated 14 days post-surgery.
# Ten rats were studied per group and the tests were performed blind. (1R,4S)-4-(3,4-dichlorophenyl)-1,2,3,4-tetrahydro-1-naphthalenamine (P) was evaluated at 3 doses (5, 10 and 15 mg/kg), administered orally and compared with a vehicle control group. Gabapentin (100 mg/kg) and duloxetine (30 mg/kg) administered orally under the same experimental conditions, were used as comparator substances. Mechanical allodynia and hyperalgesia testing were conducted at baseline and 1, 2 and 4 hours after test article administration.
# rats = test: Formalin paw test in the rat (late phase), flinches counted; assay type: in vivo
# Protocol: Rats were given an intraplantar injection of 5% formalin (50 μl) into the posterior left paw. […] The number of flinches was counted for 15 minutes, beginning 20 minutes after injection of formalin. Eight rats were studied per group. The test was performed blind. […] Data were analyzed by comparing treated groups with vehicle control using unpaired Mann-Whitney U tests.
# Dopamine (DA) uptake = Dopamine (DA) uptake (Rattus norvegicus, UniProt P23977); test: biochemical
# [5] = 5 mg/kg p.o. 60 min before the test
# [6] = 10 mg/kg p.o. 60 min before the test
# [7] = 15 mg/kg p.o. 60 min before the test
# T6 sequence (H0W1Z3 1-590): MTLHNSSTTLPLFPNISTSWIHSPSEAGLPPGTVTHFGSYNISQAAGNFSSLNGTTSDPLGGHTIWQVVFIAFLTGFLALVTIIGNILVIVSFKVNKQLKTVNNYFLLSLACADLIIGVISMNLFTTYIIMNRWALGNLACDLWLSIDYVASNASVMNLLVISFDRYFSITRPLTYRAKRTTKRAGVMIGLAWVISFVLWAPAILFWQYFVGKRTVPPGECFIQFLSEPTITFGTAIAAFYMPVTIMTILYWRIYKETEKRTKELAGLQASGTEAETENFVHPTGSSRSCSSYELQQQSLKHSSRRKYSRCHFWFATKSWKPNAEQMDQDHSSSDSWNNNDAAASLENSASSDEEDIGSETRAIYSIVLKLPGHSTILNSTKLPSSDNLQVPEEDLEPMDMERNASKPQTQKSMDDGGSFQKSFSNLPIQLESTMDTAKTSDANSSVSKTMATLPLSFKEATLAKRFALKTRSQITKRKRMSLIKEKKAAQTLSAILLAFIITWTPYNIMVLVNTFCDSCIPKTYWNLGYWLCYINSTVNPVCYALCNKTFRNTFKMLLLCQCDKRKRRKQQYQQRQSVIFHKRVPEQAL
# Chain of 5-HT2A (P28223 whole entry, species assumed): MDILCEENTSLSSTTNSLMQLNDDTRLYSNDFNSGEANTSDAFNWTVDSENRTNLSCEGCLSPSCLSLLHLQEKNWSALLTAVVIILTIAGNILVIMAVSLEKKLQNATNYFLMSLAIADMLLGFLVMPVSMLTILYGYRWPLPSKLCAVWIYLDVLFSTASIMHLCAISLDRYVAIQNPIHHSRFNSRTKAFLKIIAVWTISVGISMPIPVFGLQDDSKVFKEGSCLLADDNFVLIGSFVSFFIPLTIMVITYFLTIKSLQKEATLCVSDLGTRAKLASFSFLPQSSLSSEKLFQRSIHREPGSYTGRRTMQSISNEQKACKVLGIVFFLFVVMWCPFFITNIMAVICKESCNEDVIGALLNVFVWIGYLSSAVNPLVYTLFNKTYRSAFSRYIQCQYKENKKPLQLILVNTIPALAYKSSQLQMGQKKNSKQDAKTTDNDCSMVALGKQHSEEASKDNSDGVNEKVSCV
# Chain of B2 (P30411 whole entry): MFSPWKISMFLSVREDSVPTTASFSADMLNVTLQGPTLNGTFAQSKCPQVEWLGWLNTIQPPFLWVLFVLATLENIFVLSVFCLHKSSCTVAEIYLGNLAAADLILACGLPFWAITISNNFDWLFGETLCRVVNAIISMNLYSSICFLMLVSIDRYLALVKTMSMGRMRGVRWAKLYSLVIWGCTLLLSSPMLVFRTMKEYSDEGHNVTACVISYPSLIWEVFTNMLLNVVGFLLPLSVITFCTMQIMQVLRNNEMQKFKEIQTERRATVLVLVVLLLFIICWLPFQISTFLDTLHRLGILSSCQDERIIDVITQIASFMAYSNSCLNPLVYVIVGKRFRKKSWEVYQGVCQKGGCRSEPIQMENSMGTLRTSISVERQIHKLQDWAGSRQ
# Chain of Dopamine (DA) uptake (P23977 whole entry): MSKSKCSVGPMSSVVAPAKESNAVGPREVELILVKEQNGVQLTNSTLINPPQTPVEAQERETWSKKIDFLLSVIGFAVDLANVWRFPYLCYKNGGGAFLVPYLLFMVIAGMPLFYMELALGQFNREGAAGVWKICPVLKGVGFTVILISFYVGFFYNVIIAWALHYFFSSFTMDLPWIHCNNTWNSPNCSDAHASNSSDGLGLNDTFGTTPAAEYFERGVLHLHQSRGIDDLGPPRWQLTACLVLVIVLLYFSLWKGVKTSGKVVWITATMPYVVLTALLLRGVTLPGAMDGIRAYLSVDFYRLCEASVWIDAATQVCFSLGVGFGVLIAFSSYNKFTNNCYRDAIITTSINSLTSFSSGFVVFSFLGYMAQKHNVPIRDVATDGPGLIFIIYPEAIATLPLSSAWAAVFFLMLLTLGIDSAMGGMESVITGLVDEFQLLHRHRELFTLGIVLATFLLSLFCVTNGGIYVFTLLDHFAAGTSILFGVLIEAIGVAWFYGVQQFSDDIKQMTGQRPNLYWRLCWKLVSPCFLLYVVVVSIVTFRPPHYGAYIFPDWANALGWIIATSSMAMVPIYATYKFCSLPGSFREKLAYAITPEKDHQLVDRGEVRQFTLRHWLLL
# T3 sequence (Q63380 1-617): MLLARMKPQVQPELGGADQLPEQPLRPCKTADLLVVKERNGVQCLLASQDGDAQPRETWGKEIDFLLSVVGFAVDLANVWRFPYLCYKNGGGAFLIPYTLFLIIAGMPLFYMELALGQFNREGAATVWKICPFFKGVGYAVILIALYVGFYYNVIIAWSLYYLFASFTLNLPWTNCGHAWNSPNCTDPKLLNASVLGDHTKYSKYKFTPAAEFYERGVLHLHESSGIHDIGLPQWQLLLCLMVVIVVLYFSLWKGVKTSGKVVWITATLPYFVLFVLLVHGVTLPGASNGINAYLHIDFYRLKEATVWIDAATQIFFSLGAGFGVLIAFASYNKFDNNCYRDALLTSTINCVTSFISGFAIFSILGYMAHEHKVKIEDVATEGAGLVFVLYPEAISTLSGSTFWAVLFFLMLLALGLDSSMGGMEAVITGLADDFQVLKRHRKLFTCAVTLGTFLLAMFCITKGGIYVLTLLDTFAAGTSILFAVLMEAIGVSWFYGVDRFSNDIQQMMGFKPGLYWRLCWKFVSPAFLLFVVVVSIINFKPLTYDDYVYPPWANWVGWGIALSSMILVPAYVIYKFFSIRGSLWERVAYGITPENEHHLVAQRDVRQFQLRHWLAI
# Chain of 5-HT1B (P28222 whole entry, species assumed): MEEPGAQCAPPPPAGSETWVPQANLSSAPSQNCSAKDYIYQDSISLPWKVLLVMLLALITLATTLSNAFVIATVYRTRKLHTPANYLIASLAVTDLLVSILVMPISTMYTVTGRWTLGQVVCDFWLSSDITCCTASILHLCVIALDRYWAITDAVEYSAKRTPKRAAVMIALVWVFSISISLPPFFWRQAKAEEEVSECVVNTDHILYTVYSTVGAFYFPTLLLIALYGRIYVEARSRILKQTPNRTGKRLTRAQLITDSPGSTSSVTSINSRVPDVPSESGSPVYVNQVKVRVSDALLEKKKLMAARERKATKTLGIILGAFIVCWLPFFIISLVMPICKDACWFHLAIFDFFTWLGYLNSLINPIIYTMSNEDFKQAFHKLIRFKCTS
# T4 sequence (P23975 whole entry): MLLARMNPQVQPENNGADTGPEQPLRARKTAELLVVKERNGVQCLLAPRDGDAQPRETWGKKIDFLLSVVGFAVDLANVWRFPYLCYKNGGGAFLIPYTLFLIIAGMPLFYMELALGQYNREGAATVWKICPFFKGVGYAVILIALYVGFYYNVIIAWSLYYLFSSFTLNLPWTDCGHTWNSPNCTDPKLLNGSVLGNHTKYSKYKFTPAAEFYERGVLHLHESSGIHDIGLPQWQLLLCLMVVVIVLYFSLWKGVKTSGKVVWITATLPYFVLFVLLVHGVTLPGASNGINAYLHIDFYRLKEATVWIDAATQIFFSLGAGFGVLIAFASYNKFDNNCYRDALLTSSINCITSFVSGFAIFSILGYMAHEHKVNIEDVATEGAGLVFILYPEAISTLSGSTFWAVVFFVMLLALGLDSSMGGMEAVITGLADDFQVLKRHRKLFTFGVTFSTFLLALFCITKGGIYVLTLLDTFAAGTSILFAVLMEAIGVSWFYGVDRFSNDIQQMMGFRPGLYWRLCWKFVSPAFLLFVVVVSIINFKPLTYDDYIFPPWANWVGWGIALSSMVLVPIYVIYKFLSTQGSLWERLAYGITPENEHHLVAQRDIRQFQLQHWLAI
# T1 sequence (P23975 whole entry): as above
# T2 sequence (Q01959 whole entry): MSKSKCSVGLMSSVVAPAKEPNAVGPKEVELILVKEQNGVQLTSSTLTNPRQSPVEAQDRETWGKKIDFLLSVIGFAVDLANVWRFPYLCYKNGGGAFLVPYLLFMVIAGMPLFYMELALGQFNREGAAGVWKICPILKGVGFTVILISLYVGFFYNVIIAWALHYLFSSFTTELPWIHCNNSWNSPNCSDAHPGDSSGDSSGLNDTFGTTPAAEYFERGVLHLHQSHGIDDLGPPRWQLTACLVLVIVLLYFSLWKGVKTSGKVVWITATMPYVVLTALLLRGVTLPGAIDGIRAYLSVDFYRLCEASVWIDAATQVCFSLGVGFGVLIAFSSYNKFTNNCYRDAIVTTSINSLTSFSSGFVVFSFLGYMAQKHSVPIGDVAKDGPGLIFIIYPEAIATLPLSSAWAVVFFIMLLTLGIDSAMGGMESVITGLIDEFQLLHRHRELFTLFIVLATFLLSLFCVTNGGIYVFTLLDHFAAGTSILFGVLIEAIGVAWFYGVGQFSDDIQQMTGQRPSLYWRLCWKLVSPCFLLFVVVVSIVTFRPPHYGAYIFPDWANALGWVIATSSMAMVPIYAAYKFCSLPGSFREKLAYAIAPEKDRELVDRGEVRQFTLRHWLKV
# T5 sequence (Q01959 whole entry): as above
smiles,measurement,setting,value
"N[C@@H]1CC[C@@H](c2ccc(Cl)c(Cl)c2)c2ccccc21 [Compound P, (1R,4S)-trans 4-(3,4-dichlorophenyl)-1,2,3,4-tetrahydro-1-napthalenamine]",Ki,NE transporter,20 nM
same,Ki,DA transporter,16 nM
same,IC50,[1],9.6 nM
same,IC50,[2],15.6 nM
same,IC50,[3],12.9 nM
same,Ki,B2,1500 nM
same,Ki,5-HT1B,1000 nM
same,Ki,5-HT2A,720 nM
same,Ki,[4],1000 nM
same,IC50,"M3 receptor; duplicate samples, read-out: IC50 for inhibition of carbachol-induced contraction of the Guinea Pig ileum",9000 nM
same,M3 agonist effect on isolated Guinea pig ileum,"M3 receptor; graded concentrations, compound alone",no an M3 agonist
same,"Mean Immobility Time (% of Total) ± SEM, Day 2 Study",Long-Evans derived rats; 1.25 mg/kg i.p.,77 ± 3 % of Total
same,"Mean Immobility Time (% of Total) ± SEM, Day 4 Study",Long-Evans derived rats; 1.25 mg/kg i.p.,69 ± 4 % of Total
same,"Mean Immobility Time (% of Total) ± SEM, Day 2 Study",Long-Evans derived rats; 2.5 mg/kg i.p.,48 ± 6 % of Total
same,"Mean Immobility Time (% of Total) ± SEM, Day 4 Study",Long-Evans derived rats; 2.5 mg/kg i.p.,46 ± 8 % of Total
same,"Mean Immobility Time (% of Total) ± SEM, Day 2 Study",Long-Evans derived rats; 5.0 mg/kg i.p.,49 ± 5 % of Total
same,"Mean Immobility Time (% of Total) ± SEM, Day 4 Study",Long-Evans derived rats; 5.0 mg/kg i.p.,19 ± 6 % of Total
same,IC50,hERG channel,800 nM
same,"Mechanical Allodynia, Paw Withdrawal Threshold (Mean ± SEM)","Rat SNL Model; 5 mg/kg PO, 0 h (Baseline)",3.1 ± 0.2 g
same,"Mechanical Allodynia, Paw Withdrawal Threshold (Mean ± SEM)","Rat SNL Model; 5 mg/kg PO, 1 h",3.7 ± 0.3 g
same,"Mechanical Allodynia, Paw Withdrawal Threshold (Mean ± SEM)","Rat SNL Model; 5 mg/kg PO, 2 h",3.2 ± 0.2 g
same,"Mechanical Allodynia, Paw Withdrawal Threshold (Mean ± SEM)","Rat SNL Model; 5 mg/kg PO, 4 h",3.9 ± 0.2 g
same,"Mechanical Allodynia, Paw Withdrawal Threshold (Mean ± SEM)","Rat SNL Model; 10 mg/kg PO, 0 h (Baseline)",2.8 ± 0.2 g
same,"Mechanical Allodynia, Paw Withdrawal Threshold (Mean ± SEM)","Rat SNL Model; 10 mg/kg PO, 1 h",5.0 ± 0.3 g
same,"Mechanical Allodynia, Paw Withdrawal Threshold (Mean ± SEM)","Rat SNL Model; 10 mg/kg PO, 2 h",5.7 ± 0.5 g
same,"Mechanical Allodynia, Paw Withdrawal Threshold (Mean ± SEM)","Rat SNL Model; 10 mg/kg PO, 4 h",6.6 ± 0.4 g
same,"Mechanical Allodynia, Paw Withdrawal Threshold (Mean ± SEM)","Rat SNL Model; 15 mg/kg PO, 0 h (Baseline)",2.9 ± 0.1 g
same,"Mechanical Allodynia, Paw Withdrawal Threshold (Mean ± SEM)","Rat SNL Model; 15 mg/kg PO, 1 h",8.8 ± 0.6 g
same,"Mechanical Allodynia, Paw Withdrawal Threshold (Mean ± SEM)","Rat SNL Model; 15 mg/kg PO, 2 h",7.5 ± 0.5 g
same,"Mechanical Allodynia, Paw Withdrawal Threshold (Mean ± SEM)","Rat SNL Model; 15 mg/kg PO, 4 h",13.6 ± 0.3 g
same,"NUMBER OF FLINCHES (20 to 35 min after formalin), mean ± s.e.m.",rats; [5],89.0 ± 18.4NS
same,"NUMBER OF FLINCHES, % change from control",rats; [5],0%
same,"NUMBER OF FLINCHES (20 to 35 min after formalin), mean ± s.e.m.",rats; [6],76.4 ± 15.2NS
same,"NUMBER OF FLINCHES, % change from control",rats; [6],−15%
same,"NUMBER OF FLINCHES (20 to 35 min after formalin), mean ± s.e.m.",rats; [7],44.6 ± 13.6
same,"NUMBER OF FLINCHES, % change from control",rats; [7],−50%
same,IC50,Dopamine (DA) uptake,6.4 nM
